Paper PMC2580763, “Product inhibition of secreted phospholipase A2 may explain lysophosphatidylcholines' unexpected therapeutic properties” (Journal of Inflammation (London, England), 2008)

Experiments:
plasma sPLA2 [1] = experiment: sPLA2 enzyme activity in rat plasma ex vivo with added lysoPC (10-pyrene substrate); format: biochemical; settings: for type of inhibition of plasma sPLA2 enzyme activity: kinetic studies, rat plasma ex vivo; for Ki / Km / Vmax: lysoPC 20 μM; for Ki: all reactions with substrates above 15 μM, read-out: Ki ± s.e.m.; for Km / Vmax: plasma 10% final
Description: (§1) Blood was obtained from the trunk of 32 female Sprague Dawley rats (200–250 g) after decapitation. Blood samples were treated with citrate-phosphate-dextrose anticoagulant (1:10, Sigma), and plasma prepared by centrifugation after which samples were frozen at -80° until used. For 16 of these animals, plasma samples were pooled from 4–6 rats for ex vivo enzyme assays. The other 16 rats received lysoPC treatments (see below). The Institutional Animal Care and Use Committee of Drexel University College of Medicine approved all specific procedures of this study. Purified group IA secreted phospholipase A2 from the venom of the Mozambique spitting cobra (Naja mossambica) was obtained from Sigma (St. Louis, MO).
(§2) Enzyme assays were conducted as in previous studies using a Victor 3 fluorescent reader (Perkin Elmer, Waltham, MA). The substrate was 1-palmitoyl-2-pyrenedecanoyl phosphatidylcholine ("10-pyrene"), Caymen Chemical, Ann Arbor MI) a substrate for all calcium dependent PLA2s with the exception of cPLA2 and PAF-AH (LP-PLA2). Substrate solutions were prepared in reaction buffer consisting of 50 mM tris (pH = 7.4), 0.1 M NaCl, 2 mM CaCl2, 0.25% fatty acid-free albumin. The substrate forms phospholipids vesicles in this solution [37], and upon hydrolysis, releases fluorescent 10-pyrenyldecanoic acid (PDA). Plasma samples were 10% final and mixed with lysoPCs by gentle shaking for 100 sec, or they were derived from lysoPC-injected rats. All enzyme reactions were initiated with the addition of the substrate solution to the sPLA2 containing samples. Kinetic parameters including the properties of lysoPC inhibitors were determined by recording the initial maximum velocities (Vo) of enzyme reactions, obtained within 2 minutes of initiation. A detailed presentation of the calculations used in our kinetic analysis has been presented. Relative fluorescent units (RFU) were converted to product concentration using a standard curve made with pyrenyldecanoic acid (Invitrogen, Eugene, OR). Individual reactions were carried out in duplicate or triplicate and kinetic curves were produced using at least 6 substrate concentrations, with lysoPC or its vehicle (PBS with 8% ethanol). Representative Lineweaver-Burk and Michaelis-Menten plots as well as nonlinear regression analyses are presented in Results. Experiments were repeated at least 4 times with similar results. […] These calculations, and Km, Vmax and R^2 were made with statistical (INSTAT) and regression software (Prism), both from Graphpad (San Diego, CA).

group IA sPLA2 = experiment: purified group IA sPLA2 enzyme activity in vitro with added lysoPC (10-pyrene substrate); format: biochemical, Naja mossambica; settings: for type of inhibition of group IA sPLA2: lower range of substrate concentrations, added lysoPCs; for Km / Vmax: 15 nM group IA sPLA2
Description: as §1, §2

plasma sPLA2 [2] = experiment: plasma sPLA2 activity of rats after subcutaneous lysoPC injection; format: in vivo; settings: rat, subcutaneous 25 mg/kg, 2 hrs after injection; PDA generated in 1 hr
Description: Enzyme assays were conducted as in previous studies using a Victor 3 fluorescent reader (Perkin Elmer, Waltham, MA). The substrate was 1-palmitoyl-2-pyrenedecanoyl phosphatidylcholine ("10-pyrene"), Caymen Chemical, Ann Arbor MI) a substrate for all calcium dependent PLA2s with the exception of cPLA2 and PAF-AH (LP-PLA2). Substrate solutions were prepared in reaction buffer consisting of 50 mM tris (pH = 7.4), 0.1 M NaCl, 2 mM CaCl2, 0.25% fatty acid-free albumin. The substrate forms phospholipids vesicles in this solution [37], and upon hydrolysis, releases fluorescent 10-pyrenyldecanoic acid (PDA). Plasma samples were 10% final and mixed with lysoPCs by gentle shaking for 100 sec, or they were derived from lysoPC-injected rats. […] Kinetic parameters including the properties of lysoPC inhibitors were determined by recording the initial maximum velocities (Vo) of enzyme reactions, obtained within 2 minutes of initiation. […]
Rats were injected subcutaneously under the loose skin at the shoulders with synthetic stearoyl (n = 4) or palmitoyl (n = 4) lysoPCs (25 mg/kg) two hrs before sacrifice and compared to vehicle-injected rats (n = 8). The relative concentrations of active sPLA2 enzymes were measured in plasma samples of these animals by determining the total hydrolysis of substrate in 1 hr.

Row | Compound | type of inhibition of plasma sPLA2 enzyme activity (plasma sPLA2 [1]) | Ki (plasma sPLA2 [1]) [µM] | Km (plasma sPLA2 [1]) [µM] | Vmax (plasma sPLA2 [1]) [nM/min/ml] | percent inhibition (percent reduction in Vo) (group IA sPLA2; 40 μM lysoPC preincubated with 5% albumin (> 600 μM), n = 4) [%] | percent inhibition (percent reduction in Vo) (group IA sPLA2; 40 μM lysoPC, standard buffer (0.25% albumin), n = 8) [%] | type of inhibition of group IA sPLA2 (group IA sPLA2) | Km (group IA sPLA2; lysoPC 10 μM) [µM] | Vmax (group IA sPLA2; lysoPC 10 μM) [μM/min/ml] | Km (group IA sPLA2; lysoPC 20 μM) [µM] | Vmax (group IA sPLA2; lysoPC 20 μM) [μM/min/ml] | Km (group IA sPLA2; lysoPC 40 μM) [µM] | Vmax (group IA sPLA2; lysoPC 40 μM) [μM/min/ml] | range of plasma sPLA2 activities compared with vehicle-injected control rats (plasma sPLA2 [2]) | inhibition of group IA sPLA2 (group IA sPLA2; 40 μM lysoPC, 30 μM substrate)
1 | CCCCCCCCCCCCCCCCCC(=O)OC[C@@H](O)COP(=O)([O-])OCC[N+](C)(C)C [Stearoyl, stearoyl lysoPC] | uncompetitive inhibitors | 34.2 ± 17.4 | 11.3 | 669.2 | 29.3 ± 1.6 | 63 ± 6 | Uncompetitive inhibition | 9.37 | 221.9 | 5.92 | 156.2 | 7.31 | 92.15 | significantly lower and narrower | 
2 | CCCCCCCCCCCCCCCC(=O)OC[C@@H](O)COP(=O)([O-])OCC[N+](C)(C)C [Palmitoyl, palmitoyl lysoPC] | uncompetitive inhibitors | 25.9 ± 4 | 16.1 | 684.7 |  |  | Uncompetitive inhibition |  |  |  |  |  |  | significantly lower and narrower | 
3 | CCCCCCCCCC(=O)OC[C@@H](O)COP(=O)([O-])OCC[N+](C)(C)C [Decanoyl, Decanoyl lysoPC, reference compound] |  |  |  |  |  |  |  |  |  |  |  | 25 | 342.4 |  | failed to show inhibition
